Data reported in paper PMC8944975, “Secretin Receptor as a Target in Gastrointestinal Cancer: Expression Analysis and Ligand Development” (Biomedicines, 2022).
Like-named read-outs stand apart in the source and are kept apart here.

Biological target: human SCTR (Homo sapiens, UniProt P47872)
Test: agonist-induced β-arr2-GFP translocation
Format: cell-based
Set-up: expressed in transfected cells; host or cells: U2OS (human osteosarcoma), stably co-transfected with β-arrestin2-GFP
Conditions: for β-arrestin2-GFP agonism efficacy: % of wild-type secretin; for EC50: mean of at least three independent experiments in duplicates
Excerpt: U2OS-SCTR/β-arr2-GFP: human osteosarcoma cell line U2OS (purchased from ATCC/LGC Standards, Wesel, Germany) were stably transfected with plasmids encoding SCTR (Homo sapiens) and the fusion protein β-arrestin2-green fluorescent protein (GFP) (Rattus norvegicus-Aequorea victoria) (β-arr2-GFP).
To evaluate reactivity of human SCTR exposed to different ligand variants, intracellular translocation of a fusion protein of β-arrestin2 and green fluorescent protein was utilized. For evaluation of activation, receptor-mediated recruitment of cytoplasmic β-arr2-GFP was monitored through its translocation into condensed intracellular vesicles. The extent of translocation events was quantified by determining the increasing granularization of the intracellular fluorescence utilizing an automated high-throughput microscope in combination with computational algorithms to estimate potency (EC50) and efficacy, thus characterizing ligand-SCTR interaction. U2OS-SCTR/β-arr2-GFP cells were seeded in 96-well cell culture plates to 60–80% confluence. On the following day, preceding stimulation, cells were incubated for one hour in serum-free medium. Ligand variants were applied as serial dilutions in assay buffer C1. After preincubation, supernatant was discarded by tapping plates overhead repeatedly. For stimulation, 50 µL of ligand dilution was applied per well in duplicates and incubated for 20 min at 37 °C. Successively, cells were fixed by applying 4% buffered formaldehyde (Herbeta Arzneimittel, Berlin, Germany) for 10 min at room temperature and consecutively permeabilized for 10 min at room temperature with 0.1% TritonX-100 in PBS, containing DAPI (4′,6-Diamidin-2-phenylindol, SigmaAldrich, Deisenhofen, Germany, 1 µg/mL) to counterstain nuclei. Microscopic images were recorded by an IN Cell Analyzer 1000 (GE Healthcare, Reading, UK) with 20× magnification at 5 frames per well in a 96-well format. Image processing was performed with IN Cell Investigator software (GE Healthcare, Reading, UK), applying the provided granularity algorithm. The output of the analysis was indicated as vesicle area/cell and was utilized for calculation of concentration–response curves. Parameters derived from curve fitting included the concentration of half-maximal activity (EC50), and intrinsic activity. Intrinsic activity was normalized defining reaction to non-modified wild type secretin as the 100% curve maximum value.

[1] = Supplementary Tables S1 and S2, decimal comma, '-' not detectable (Figure 4)
[2] = Supplementary Tables S1 and S2, U2OS-SCTR/β-arr2-GFP cells, 20 min at 37 °C, decimal comma, '-' not detectable (Figure 4), read-out: β-arrestin2-GFP agonism potency

Sequence of human SCTR (P47872 23-440): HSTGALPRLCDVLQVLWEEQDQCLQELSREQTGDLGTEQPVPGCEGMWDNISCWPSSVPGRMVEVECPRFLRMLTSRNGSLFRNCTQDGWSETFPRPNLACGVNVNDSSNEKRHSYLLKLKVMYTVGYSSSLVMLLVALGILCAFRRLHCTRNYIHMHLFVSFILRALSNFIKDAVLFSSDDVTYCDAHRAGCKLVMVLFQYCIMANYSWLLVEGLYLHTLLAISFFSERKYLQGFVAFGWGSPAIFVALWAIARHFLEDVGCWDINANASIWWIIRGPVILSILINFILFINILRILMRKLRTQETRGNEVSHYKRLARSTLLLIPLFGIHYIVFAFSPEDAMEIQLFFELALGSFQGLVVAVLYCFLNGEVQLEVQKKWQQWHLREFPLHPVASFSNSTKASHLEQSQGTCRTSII

Compound	β-arrestin2-GFP agonism efficacy [1]	EC50 [2] [nM]	also measured
CC(C)C[C@H](NC(=O)CNC(=O)[C@H](CCC(N)=O)NC(=O)[C@H](CC(C)C)NC(=O)[C@H](CC(C)C)NC(=O)[C@H](CCCNC(=N)N)NC(=O)[C@H](CCC(N)=O)NC(=O)[C@H](CC(C)C)NC(=O)[C@H](CCCNC(=N)N)NC(=O)[C@H](CCC(=O)O)NC(=O)CNC(=O)[C@H](CCC(=O)O)NC(=O)[C@H](CCCNC(=N)N)NC(=O)[C@H](CC(C)C)NC(=O)[C@H](CCCNC(=N)N)NC(=O)[C@H](CO)NC(=O)[C@H](CC(C)C)NC(=O)[C@H](CCC(=O)O)NC(=O)[C@H](CO)NC(=O)[C@@H](NC(=O)[C@H](Cc1ccccc1)NC(=O)[C@@H](NC(=O)CNC(=O)[C@H](CC(=O)O)NC(=O)[C@H](CO)NC(=O)[C@@H](N)Cc1c[nH]cn1)[C@@H](C)O)[C@@H](C)O)C(=O)N[C@H](C(=O)O)C(C)C [Peptide 70]	104,77 % Sec	2.26	
CC(C)C[C@H](NC(=O)CNC(=O)[C@H](CCC(N)=O)NC(=O)[C@H](CC(C)C)NC(=O)[C@H](CC(C)C)NC(=O)[C@H](CCCNC(=N)N)NC(=O)[C@H](CCC(N)=O)NC(=O)[C@H](CC(C)C)NC(=O)[C@H](CCCNC(=N)N)NC(=O)[C@H](C)NC(=O)CNC(=O)[C@H](CCC(=O)O)NC(=O)[C@H](CCCNC(=N)N)NC(=O)[C@H](CC(C)C)NC(=O)[C@H](CCCNC(=N)N)NC(=O)[C@H](CO)NC(=O)[C@H](CC(C)C)NC(=O)[C@H](CCC(=O)O)NC(=O)[C@H](CO)NC(=O)[C@@H](NC(=O)[C@H](Cc1ccccc1)NC(=O)[C@@H](NC(=O)CNC(=O)[C@H](CC(=O)O)NC(=O)[C@@H](CO)NC(=O)[C@@H](N)Cc1c[nH]cn1)[C@@H](C)O)[C@@H](C)O)C(=O)N[C@H](C(=O)O)C(C)C [Peptide 87]	91,57 % Sec		
CC(C)C[C@H](NC(=O)[C@H](CCCNC(=N)N)NC(=O)[C@H](C)NC(=O)CNC(=O)[C@H](CCC(=O)O)NC(=O)[C@H](CCCNC(=N)N)NC(=O)[C@H](CC(C)C)NC(=O)[C@H](CCCNC(=N)N)NC(=O)[C@H](CO)NC(=O)[C@H](CC(C)C)NC(=O)[C@H](CCC(=O)O)NC(=O)[C@H](CO)NC(=O)[C@@H](NC(=O)[C@H](Cc1ccccc1)NC(=O)[C@@H](NC(=O)CNC(=O)[C@H](CC(=O)O)NC(=O)[C@H](CO)NC(=O)[C@@H](N)Cc1c[nH]cn1)[C@@H](C)O)[C@@H](C)O)C(=O)N[C@@H](CCC(N)=O)C(=O)N[C@@H](CCCNC(=N)N)C(=O)N[C@@H](CC(C)C)C(=O)N[C@@H](CC(C)C)C(=O)N[C@@H](CCC(N)=O)C(=O)NCC(=O)N1CCC[C@H]1C(=O)N[C@H](C(=O)O)C(C)C [Peptide 84]	95,03 % Sec	72.6	
CC(C)C[C@H](NC(=O)CNC(=O)[C@H](CCC(N)=O)NC(=O)[C@H](CC(C)C)NC(=O)[C@H](CC(C)C)NC(=O)[C@H](CCCNC(=N)N)NC(=O)[C@H](CCC(N)=O)NC(=O)[C@H](CC(C)C)NC(=O)[C@H](CCCNC(=N)N)NC(=O)[C@H](C)NC(=O)CNC(=O)[C@H](CCC(=O)O)NC(=O)[C@H](CCCCN)NC(=O)[C@H](CC(C)C)NC(=O)[C@H](CCCNC(=N)N)NC(=O)[C@H](CO)NC(=O)[C@H](CC(C)C)NC(=O)[C@H](CCC(=O)O)NC(=O)[C@H](CO)NC(=O)[C@@H](NC(=O)[C@H](Cc1ccccc1)NC(=O)[C@@H](NC(=O)CNC(=O)[C@H](CC(=O)O)NC(=O)[C@H](CO)NC(=O)[C@@H](N)Cc1c[nH]cn1)[C@@H](C)O)[C@@H](C)O)C(=O)N[C@H](C(=O)O)C(C)C [Peptide 68]	114,30 % Sec	9.53	
CC(C)C[C@H](NC(=O)CNC(=O)[C@H](CCC(N)=O)NC(=O)[C@H](CC(C)C)NC(=O)[C@H](CC(C)C)NC(=O)[C@H](CCCNC(=N)N)NC(=O)[C@H](CCC(=O)O)NC(=O)[C@H](CC(C)C)NC(=O)[C@H](CCCNC(=N)N)NC(=O)[C@H](C)NC(=O)CNC(=O)[C@H](CCC(=O)O)NC(=O)[C@H](CCCNC(=N)N)NC(=O)[C@H](CC(C)C)NC(=O)[C@H](CCCNC(=N)N)NC(=O)[C@H](CO)NC(=O)[C@H](CC(C)C)NC(=O)[C@H](CCC(=O)O)NC(=O)[C@H](CO)NC(=O)[C@@H](NC(=O)[C@H](Cc1ccccc1)NC(=O)[C@@H](NC(=O)CNC(=O)[C@H](CC(=O)O)NC(=O)[C@H](CO)NC(=O)[C@@H](N)Cc1c[nH]cn1)[C@@H](C)O)[C@@H](C)O)C(=O)N[C@H](C(=O)O)C(C)C [Peptide 71]	100,73 % Sec	2.28	
CC(C)C[C@H](NC(=O)CNC(=O)[C@H](CCC(N)=O)NC(=O)[C@H](CC(C)C)NC(=O)[C@H](CC(C)C)NC(=O)[C@H](CCCNC(=N)N)NC(=O)[C@H](CCC(N)=O)NC(=O)[C@H](CC(C)C)NC(=O)[C@H](CCCNC(=N)N)NC(=O)[C@H](C)NC(=O)CNC(=O)[C@H](CCC(=O)O)NC(=O)[C@H](CCCNC(=N)N)NC(=O)[C@H](CC(C)C)NC(=O)[C@H](CCCNC(=N)N)NC(=O)[C@H](CO)NC(=O)[C@H](CC(C)C)NC(=O)[C@H](CCC(=O)O)NC(=O)[C@H](CO)NC(=O)[C@@H](NC(=O)[C@H](Cc1ccccc1)NC(=O)[C@@H](NC(=O)CNC(=O)[C@H](CC(=O)O)NC(=O)[C@H](CO)NC(=O)[C@H](N)Cc1c[nH]cn1)[C@@H](C)O)[C@@H](C)O)C(=O)N[C@H](C(=O)O)C(C)C [Peptide 86]	107,20 % Sec		
GLP-2: structurally related glucagon-like peptide 2 [reference compound]			SCTR activation (agonism) in the β-arr2-GFP translocation assay, in words (U2OS-SCTR/β-arr2-GFP cells): no SCTR activation
CC(C)C[C@H](NC(=O)CNC(=O)[C@H](CCC(N)=O)NC(=O)[C@H](CC(C)C)NC(=O)[C@H](CC(C)C)NC(=O)[C@H](CCCNC(=N)N)NC(=O)[C@H](CCC(N)=O)NC(=O)[C@H](CC(C)C)NC(=O)[C@H](CCCNC(=N)N)NC(=O)[C@H](C)NC(=O)CNC(=O)[C@H](CCC(=O)O)NC(=O)[C@H](CCCNC(=N)N)NC(=O)[C@H](CC(C)C)NC(=O)[C@H](CCCNC(=N)N)NC(=O)[C@H](CO)NC(=O)[C@H](CC(C)C)NC(=O)[C@H](CCC(=O)O)NC(=O)[C@H](CO)NC(=O)[C@@H](NC(=O)[C@H](C)NC(=O)[C@@H](NC(=O)CNC(=O)[C@H](CC(=O)O)NC(=O)[C@H](CO)NC(=O)[C@@H](N)Cc1c[nH]cn1)[C@@H](C)O)[C@@H](C)O)C(=O)N[C@H](C(=O)O)C(C)C [Peptide 7]			EC50 (U2OS-SCTR/β-arr2-GFP cells, ligand 20 min at 37 °C, vesicle area/cell by automated microscopy, read-out: EC50, β-arr2-GFP translocation assay): 155 ± 30.8 nM; Emax (U2OS-SCTR/β-arr2-GFP cells, normalized to wild type secretin = 100% curve maximum, read-out: intrinsic activity (efficacy), β-arr2-GFP translocation assay): 61.8 ± 4.9%
CC(C)C[C@H](NC(=O)CNC(=O)[C@H](CCC(N)=O)NC(=O)[C@H](CC(C)C)NC(=O)[C@H](CC(C)C)NC(=O)[C@H](CCCNC(=N)N)NC(=O)[C@H](CCC(N)=O)NC(=O)[C@H](CC(C)C)NC(=O)[C@H](CCCNC(=N)N)NC(=O)[C@H](C)NC(=O)CNC(=O)[C@H](CCC(=O)O)NC(=O)[C@H](CCCNC(=N)N)NC(=O)[C@H](CC(C)C)NC(=O)[C@H](CCCNC(=N)N)NC(=O)[C@H](CO)NC(=O)[C@H](CC(C)C)NC(=O)[C@H](CCC(=O)O)NC(=O)[C@H](CO)NC(=O)[C@@H](NC(=O)[C@H](Cc1ccccc1)NC(=O)[C@@H](NC(=O)CNC(=O)[C@H](CC(=O)O)NC(=O)[C@@H]1CCCN1C(=O)[C@@H](N)Cc1c[nH]cn1)[C@@H](C)O)[C@@H](C)O)C(=O)N[C@H](C(=O)O)C(C)C [Peptide 74]	106,23 % Sec	3.37	
CC(C)C[C@H](NC(=O)CNC(=O)[C@H](CCC(N)=O)NC(=O)[C@H](CC(C)C)NC(=O)[C@H](CC(C)C)NC(=O)[C@H](CCCNC(=N)N)NC(=O)[C@H](CCC(N)=O)NC(=O)[C@H](CC(C)C)NC(=O)[C@H](CCCNC(=N)N)NC(=O)[C@H](C)NC(=O)CNC(=O)[C@H](CCC(=O)O)NC(=O)[C@H](CCCNC(=N)N)NC(=O)[C@H](CC(C)C)NC(=O)[C@H](CCCNC(=N)N)NC(=O)[C@H](CO)NC(=O)[C@H](CC(C)C)NC(=O)[C@H](CCC(=O)O)NC(=O)[C@H](CO)NC(=O)[C@@H](NC(=O)[C@H](Cc1ccccc1)NC(=O)[C@@H](NC(=O)CNC(=O)[C@H](CC(=O)O)NC(=O)[C@H](CO)NC(=O)[C@@H]1CCCN1)[C@@H](C)O)[C@@H](C)O)C(=O)N[C@H](C(=O)O)C(C)C [Peptide 73]	96,57 % Sec	39.1	
